Data set [1] has as its system C57bl/6J female mice. Nature of the data set: Supplementation with L. reuteri (daily gavage) with or without risperidone in drinking water: body mass and visceral fat pads. Type of data set: in vivo. To be noted: risperidone-treated mice, 64 days, relative to risperidone plus L. reuteri lacking reutericyclin production; Wilcoxon p<0.05.
Another data set concerns gut microbiome. Conditions: risperidone; cited from earlier work.
The subject of data set [2] is C57bl/6J female mice. Nature of the data set: Risperidone treatment for 60 days, weight gain in mice. Type of data set: in vivo. To be noted: risperidone for 60 days, vs control.
Experimental: Shotgun metagenomic sequencing data (MiSeq, 2×250, high yield) from stool DNA were analyzed on the Anvi'o visualization platform. Bacterial genomes were refined to either genus or species level and ordered as slices within a ring by gene similarity (hierarchical clustering with a Hidden Markov Model).

In the case of `CCCCCCC/C=C/C(=O)N1C(O)=C(C(C)=O)C(=O)[C@H]1CC(C)C` [reutericyclin, (5R)-1-(2-decenoyl)-2-hydroxy-3-acetyl-5-isobutyl-Δ2-pyrroline-4-one], the “weight gain (body mass increase)” value with C57bl/6J female mice [1] is “prevents weight gain”.
With `Cc1nc2n(c(=O)c1CCN1CCC(c3noc4cc(F)ccc34)CC1)CCCC2` [risperidone], in the data set with gut microbiome, the “growth of organisms under anaerobic conditions” value is given as “selectively suppressed growth of organisms under anaerobic conditions”. The weight gain entry in the data set on C57bl/6J female mice [2] is listed as “statistically significant weight gain”.
